From US8530497B2, “Crystalline salts of a potent HCV inhibitor” (Boehringer Ingelheim International GmbH, priority 2010, dated 2013) come the findings set out here.

A short description of data set [1]: Intrinsic dissolution rate (Van Kel VK7000 dissolution tester, Wood's die). The class given is physicochemical. Particulars: for Dissolution Rate: pH 6.8 (20 mM sodium phosphate), 37° C., 100 rpm. The method, then: 6. Dissolution Studies Intrinsic dissolution rates were evaluated using Van Kel VK7000 dissolution tester and 400 mL dissolution bath with a rotation rate of 100 rpm at 37° C. Samples were prepared using approximately 50 mg of API in a 6 mm diameter Wood's die with compression force of 3 kN and 15 seconds dwell time by Carver press. The test was performed in 400 mL of pH 6.8 (20 mM sodium phosphate). Samples were collected at 2, 5, 10, 15, 20, 25, and 30 minutes, and the collected samples were unfiltered or filtered using […] PDVF filter. The concentrations of the drug were determined by HPLC using isocratic Method with fluorescence detection.

A short description of data set [2]: Dynamic Vapor Sorption (DVS) moisture gain. Format: physicochemical. The conditions noted are these: through 85% RH at 25° C.; for hygroscopic properties (DVS): conditions used in the analysis. The procedure:
4. Dynamic Vapor Sorption Dynamic water sorption analyses were performed using Surface Measurement Systems DVS or DVS-HT, or VTI SGA-100 instruments. Sample sizes ranged from 4 mg to 13 mg. Three cycles of water sorption/desorption were run at 25° C. with change of relative humidity from 5-10% increments from 5% to 95%. The criteria for the step were weight change less than or equal to 0.002% or maximum time of 3 hours.

Molecules are shown by their SMILES. Bounds are passed on as bounds.

Turning to `C=C[C@@H]1C[C@]1(NC(=O)[C@@H]1C[C@@H](Oc2cc(-c3csc(NC(=O)C(C)C)n3)nc3c(Br)c(OC)ccc23)CN1C(=O)[C@@H](NC(=O)OC1CCCC1)C(C)(C)C)C(=O)O` [TH], the “dissolution rate relative to the sodium salt or HEA” value in data set [1] (pH 6.8) is listed as over 10 fold. Further, in data set [1], the “Dissolution Rate” value is 64.4 µg/min/mL. In data set [2], the “moisture gain by Dynamic Vapor Sorption” value is under 4% and the “hygroscopic properties (DVS)” value is “non-hygroscopic or slightly hygroscopic”.

With `C=C[C@@H]1C[C@]1(NC(=O)[C@@H]1C[C@@H](Oc2cc(-c3csc(NC(=O)C(C)C)n3)nc3c(Br)c(OC)ccc23)CN1C(=O)[C@@H](NC(=O)OC1CCCC1)C(C)(C)C)C(=O)O` [NA], the “Dissolution Rate” value in data set [1] amounted to 1.3 µg/min/mL.

For `C=C[C@@H]1C[C@]1(NC(=O)[C@@H]1C[C@@H](Oc2cc(-c3csc(NC(=O)C(C)C)n3)nc3c(Br)c(OC)ccc23)CN1C(=O)[C@@H](NC(=O)OC1CCCC1)C(C)(C)C)C(=O)O` [HEA], in data set [1] (pH 6.8), the “dissolution rate compared with the sodium salt” value is “comparable to the sodium salt”. Further, the “Dissolution Rate” value in data set [1] is 1.1 µg/min/mL. Moreover, in data set [2], the “moisture gain by Dynamic Vapor Sorption” value was under 2.5% and the “hygroscopic properties (DVS)” value was “non-hygroscopic”.
